Results on one compound are retold here after article PMC10609081, “In Vivo Trafficking of the Anticancer Drug Tris(8-Quinolinolato) Gallium (III) (KP46) by Gallium-68/67 PET/SPECT Imaging” (Molecules, 2023).

For the data set, the target named is T1, human serum albumin (HSA) (Homo sapiens, UniProt P02768).
T1 construct: purchased Sigma Aldrich
The experiment in a line: Binding to human serum albumin by size exclusion chromatography (PD MidiTrap G-25). The class given is in vitro ADME. As for the experimental part: Solutions of human apo-transferrin (apo-Tf, 2 mg/mL) and human serum albumin (HSA, 50 mg/mL) (both purchased from Sigma Aldrich) were dissolved in aqueous NaHCO3 (5 mM, pH = 8) and PBS (pH = 7.4), respectively. An amount of 1 MBq of tracer-level [^68Ga]KP46 (13–20 µL) or [^68Ga]gallium acetate (20–25 µL) was added to 1.2 mL of the apo-Tf solution and to a similar apo-Tf-free NaHCO3 solution (control). Similarly, [^68Ga]KP46 and [^68Ga]gallium acetate solutions were added to 1.5 mL PBS containing HSA or HSA-free PBS (control). The samples were incubated for 60 min at 37 °C (pH = 7–7.5). From each mixture, 0.5 mL was loaded into PD MidiTrap G-25 size exclusion chromatography cartridges that were preconditioned with 8 mL of NaHCO3 (5 mM) (for apo-Tf binding) or PBS (for HSA binding). Fractions (0.5 mL) were collected and counted with a Wallac gamma counter. Protein absorbance at 280 nm was measured using a Nanodrop spectrophotometer. To investigate the speciation of the Ga–KP46 complex in the presence of apo-Tf at later time points (up to 48 h), the experiment was repeated with ^67Ga.

T1 sequence (P02768 25-609): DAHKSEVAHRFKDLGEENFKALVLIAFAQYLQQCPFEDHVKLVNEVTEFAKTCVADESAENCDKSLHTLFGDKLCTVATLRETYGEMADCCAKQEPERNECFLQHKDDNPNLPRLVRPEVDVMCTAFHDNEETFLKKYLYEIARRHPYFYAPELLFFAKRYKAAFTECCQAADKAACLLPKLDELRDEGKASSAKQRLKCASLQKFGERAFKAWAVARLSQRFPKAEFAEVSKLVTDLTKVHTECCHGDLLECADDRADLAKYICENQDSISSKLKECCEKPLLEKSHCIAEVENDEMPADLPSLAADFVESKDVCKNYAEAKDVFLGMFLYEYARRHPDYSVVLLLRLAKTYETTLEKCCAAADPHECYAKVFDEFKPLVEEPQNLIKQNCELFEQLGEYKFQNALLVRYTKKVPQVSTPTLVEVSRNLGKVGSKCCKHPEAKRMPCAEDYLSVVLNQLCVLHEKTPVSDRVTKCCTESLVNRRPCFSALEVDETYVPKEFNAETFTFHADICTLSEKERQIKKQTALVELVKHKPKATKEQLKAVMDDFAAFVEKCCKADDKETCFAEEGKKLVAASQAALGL

Take `[68Ga+3].[O-]c1cccc2cccnc12.[O-]c1cccc2cccnc12.[O-]c1cccc2cccnc12` [[^68Ga]KP46]: the “radioactivity coeluting with HSA” value (1 h incubation at 37 °C, HSA 50 mg/mL in PBS) is “about 16%”. For the same compound, the “binding of radioactivity to HSA” value (incubated 1 h with HSA) is “significant binding”.
